Source: patent US10154991B2, “Anesthetic compounds and related methods of use” (priority 2012, dated 2018)
Read-outs that look alike come from different tables or passages of the source.

How the values were obtained:
[1] = In vitro metabolic half-life of hypnotics in rat blood; type: in vitro ADME; details: Sprague-Dawley, rat, rat blood
Protocol: On the day of study, whole blood was drawn from the femoral venous catheters of 3 Sprague-Dawley rats (1-2 ml/rat), immediately anticoagulated with heparin (38 U), pooled, and stored on ice. A 1 ml aliquot of blood was warmed at 37° C. for 5 minutes and hypnotic (from a 40 mM in dimethyl sulfoxide stock solution) was added to a final concentration of 100 μM. After the desired incubation time, a 150 μl sample was removed and the metabolic reaction was quenched with 150 μl acetonitrile (Sigma-Aldrich, St. Louis, Mo.). Zero time point samples were prepared by adding 150 μl acetonitrile to blood prior to adding hypnotic (from a 4 mM in dimethyl sulfoxide stock solution). The quenched samples were centrifuged and the resultant supernatant separated and stored at −20° C. until analyzed. Hypnotic concentrations in thawed samples were determined by high performance liquid chromatography using a Varian Prostar system with a 4.6×250 mm Proto 300 C18 column (Nest Group, Southborough, Mass.) with the UV detector set at 240 nm.

[2] = Octanol:water partition coefficients; type: physicochemical; details: 10 mM Tris pH 7.4; read-out: Octanol/Water Partition Coefficient ± SD (converted)
Protocol: One mg of each hypnotic was added to 10 ml of water buffered with 10 mM Tris (pH 7.4) and 0.5 ml or 1 ml of octanol. The mixture was stirred overnight and then centrifuged to more fully separate the organic and aqueous phases. The relative hypnotic concentrations in each phase (i.e. the partition coefficient) were determined by high performance liquid chromatography as described for blood.

[3] = system: ICR mice; test: In vivo sedative/hypnotic testing, IV bolus, mice; set-up: species or system mouse; details: for slope of duration of LORR vs logarithm of dose: mice
Protocol: (§1) Animals were housed in a dedicated room at the vivarium of VivoPath Inc., located at Redstone Center, 55 Union Street, Worcester, Mass. Housing and care was as specified in the USDA Animal Welfare Act (9 CFR, Parts 1, 2, and 3) and as described in the Guide for the Care and Use of Laboratory Animals from the National Research Council. Environmental conditions of housing rooms are set at the following ranges: temperature: 70±7° F. (22±4° C.), humidity: 50±20%, light cycle: 12-hour light/12-hour dark cycle—lights on at 7 am and off at 7 pm., air changes: ten or more air changes per hour with 100% fresh air. The animals' body weights were measured prior to the first dose on each experimental day.
Adult ICR mice (20-30 g) were purchased from Harlan (South Easton, Mass.). Drugs were administered as intravenous bolus injection in a tail vein.
(§2) Drugs were prepared in either dimethylsulfoxide/saline or saline vehicle or hydroxypropyl-β-cyclodextrin (20% in water, pH 7.0) solution and were administered as an intravenous bolus injection. Animals received 1-4 doses of drug(s) during an experimental day, either ascending doses or different drugs. Doses were administered at intervals equal to the longer of 1 h or 10-times the duration of apparent sedative/hypnotic effects from the previous dose. The sedative/hypnotic properties of the drugs were evaluated by observation of the rats, ranging from mild excitation, mild sedation apparent due to reduced activity, and moderate sedation to hypnosis reflected by loss of righting reflex (LORR, the ability to place rear and hind legs under the body, as well as attenuation/loss of nociceptive reflexes).

[4] = system: Sprague-Dawley rats; test: In vivo sedative/hypnotic testing, IV bolus, rats; set-up: species or system rat; details: for slope of duration of LORR vs logarithm of dose: rats
Protocol: as §1
Adult male Sprague-Dawley rats (225-300 g) were purchased from Harlan (South Easton, Mass.).
as §2

[5] = system: dogs and monkeys; test: Preliminary studies of duration of action in dogs and monkeys; type: in vivo; details: large animals, similar to that in rats
[6] = system: rats; test: loss of righting reflexes (LORR) assay after IV bolus; details: for ED50: Rattus norvegicus, iv, read-out: ED50 ± SD; for Slope of Duration vs. Log Dose ± SD: duration of LORR vs log dose, rats
Protocol: Adult male Sprague-Dawley rats (230-350 gm) were purchased from Charles River Laboratories (Wilmington, Mass.) and housed in the Massachusetts General Hospital Center for Comparative Medicine animal care facility. All drugs were administered through a femoral venous catheter pre-implanted by the vendor prior to animal delivery to our animal care facility.
Immediately after injection, rats were turned supine. […] A stopwatch was used to measure the duration of LORR, which was defined as the time from drug injection until the animal spontaneously righted itself.

[7] = system: beagle dogs; details: dogs
Protocol: A pilot study was conducted in dogs to assess anesthesia induced by cyclopropyl-MOC-metomidate continuous infusion without a bolus induction dosing. Two dogs received cyclopropyl-MOC-metomidate as a 1 mg/kg/min IV infusion without prior bolus administration.
Anesthesia induction was determined using the methods described above.
Etomidate was administered to dogs at IV bolus doses ranging from 0.25 to 2 mg/kg. Anesthesia in the dogs was measured as described above. […] The bolus dose of 2 mg/kg was adopted to induce anesthesia prior to subsequent continuous infusions.
Propofol was administered to dogs as an IV bolus dose of 5 mg/kg to induce anesthesia followed by a continuous infusion at 0.4 mg/kg/min.

[8] = system: adrenal cortisol production
Protocol: Dexamethasone (0.01 mg/kg) was administered two hours before the first administration of ACTH and re-administered every 2 hours to maintain suppression. Dexamethasone pretreatment suppresses the hypothalamo-hypophyseal axis to prevent endogenous ACTH release and subsequent adrenocortical steroid secretion. […] Synthetic ACTH (Synacthen, 250 μg) was then administered at times after test substance administration to evaluate the effects of the test substance on the release of the adrenal steroid, cortisol.
All study methods described for Study 1 were repeated, except the ACTH administration at the end of infusion was omitted.

[9] = From Pejo et al.; cited from earlier work
[10] = pooled heparinised whole blood, 37° C., 100 μM, read-out: Blood Half-Life (95% CI)

Structure (SMILES)	half-life at 100 μM [1, 10] [s]	half-life at 100 μM ([1]; 37° C., 100 μM, read-out: Blood Half-Life (95% CI)) [s]	half-life at 100 μM ([1]; bound based on the lower limit of quantification, read-out: metabolic half-life in rat blood (converted)) [s]	logD [2]	ED50 ([3]; Mus musculus, sedation/hypnosis, IV) [mg/kg]	slope of duration of LORR vs logarithm of dose [3]	Rat response ([4]; IV bolus, doses as in the cell)	ED50 ([4]; Rattus norvegicus, sedation/hypnosis, IV) [mg/kg]	slope of duration of LORR vs logarithm of dose [4]	duration of action [5] [min]	ED50 [6] [mg/kg]	Slope of Duration vs. Log Dose ± SD [6]	involuntary movements during recovery [7]	bolus dose range inducing anesthesia ([7]; IV bolus 0.25 to 2 mg/kg tested) [mg/kg]	minimum initial effective continuous infusion dose rate ([7]; after 2 mg/kg bolus) [mg/kg/min]	respiratory effect during infusion ([7]; after approximately 30 minutes at 0.15 mg/kg/min)	context dependence of recovery from anesthesia ([7]; bolus vs 30- or 120-minute infusion)	ACTH-induced plasma cortisol response ([8]; Study 1, dogs, after 120-minute infusion)	adrenal suppression ([8]; dogs, compared with the other test substances)	Octanol/Water Partition Coefficient ± SD [9]
COC(=O)CCOC(=O)c1cncn1[C@H](C)c1ccccc1 [Methoxycarbonyl etomidate, methoxycarbonyl etomidate, reference compound]	24.6	8.4	20	2.28	~10	approximately 1.0	Sedation/hypnosis induced at 8 &	~8	approximately 1.0	1 to 2	5.3 ± 1.5	1.0±0.3 min/(log mg/kg)								
CCOC(=O)c1cncn1[C@H](C)c1ccccc1 [Etomidate, (R)-ethyl-1-(1-phenylethyl)-1H-imidazole-5-carboxylate, reference compound]						approximately 10			~24		0.53 ± 0.17	24±4.7 min/(log mg/kg)	extended periods of involuntary movements	0.5 to 2	0.15	decrease in respiratory rate	marked context-dependency	markedly inhibited	more profound and durable adrenal suppression	800 ± 180
COC(=O)C[C@@H](C)OC(=O)c1cncn1[C@H](C)c1ccccc1 [β-(R)- methyl- methoxycarbonyl etomidate, β-R-methyl-MOC-etomidate]	54.6			2.7							3.5 ± 0.6									
COC(=O)c1cncn1[C@H](C)c1ccccc1 [Metomidate, reference compound]	8580			2.58							0.73 ± 0.5									
